From patent publication US11819532B2, “Peptide macrocycles against Acinetobacter baumannii” (Hoffmann-La Roche Inc., priority 2018, dated 2023)

What was measured:
A. baumannii ATCC 17978 = test: 50% growth inhibitory concentration (IC50) determination, antimicrobial susceptibility testing; assay type: cell-based; details: Acinetobacter baumannii; 50% growth inhibition, A. baumannii strain ATCC17978, Iso-Sensitest medium; read-out: IC50 ATCC17978
Protocol: The in vitro antimicrobial activity of the compounds was alternatively determined according to the following procedure:
The assay used a 10-points Iso-Sensitest broth medium to measure quantitatively the in vitro activity of the compounds against A. baumannii ATCC 17978.
Stock compounds in DMSO were serially twofold diluted (e.g. range from 50 to 0.097 μM or from 10 to 0.020 μM final concentration) in 384 wells microtiter plates and inoculated with 49 μl the bacterial suspension in Iso-Sensitest medium to have a final cell concentration of ˜5×10^(5)CFU/ml in a final volume/well of 50 μl/well. Microtiter plates were incubated at 35±2° C.
Bacterial cell growth was determined with the measurement of optical density at X=600 nm each 20 minutes over a time course of 16h.
Growth inhibition was calculated during the logarithmic growth of the bacterial cells with determination of the concentration inhibiting 50% (IC50) and 90% (IC90) of the growth.
Table 1 provides the 50% growth inhibitory concentrations (IC50) in micromoles per liter of the compounds of present invention obtained against the A. baumannii strain ATCC17978.

[1] = Plasma precipitation screening assay; design: species or system rat; details: Wistar (Hanbrl:Wist SPF), rat, 10 min
Protocol: An aliquot (10 μL) of compound solubilized in physiological buffer or the formulation used for its parenteral administration in vivo, and of various dilutions thereof in phosphate-buffered saline (PBS), is mixed 1:1 with rat plasma. After 10 minutes incubation at room temperature the UV-absorption of the mixtures is measured and compared to absorption of blank plasma or plasma with vehicle solution. A significant (often concentration dependent) increase of absorption is indicative of precipitation.
Whole blood is obtained from WISTAR rats (Hanbrl:Wist SPF) under terminal anaesthesia after intraperitoneal injection of a pentobarbital solution (from animals euthanized for collection of tissue for other experimental purposes). Blood is collected in 1.2 mL of Heparin S-Monovette tubes (Sarstedt) for the preparation of heparin plasma.
The tubes are then centrifuged for 5 min at 5200 g at room temperature to isolate the plasma supernatant. The plasma is used in the assay within 48 h of collection (storage at 4° C.).
Test compounds are received as powder or formulated. When obtained as powder, they are solubilized in 0.9% aq. sodium chloride solution in order to get the highest indicated concentration to be tested. The solubility is visually checked and the solutions are filtered using 0.45 PVDF hydrophilic filters (Durapore®, Darmstadt, Germany), to remove possible solid impurities. pH of this initial solution might be measured in the filtered stock solutions, before proceeding to prepare a compound dilution series in PBS (1:1-dilution steps).
The assay is conducted in 384-well plates. 10 μL of rat plasma is added to 10 μL of the various compound solutions. The assay is performed in duplicate. 10 μL of vehicle (0.9% aq. sodium chloride solution, PBS) added to the plasma is used as a negative control. The absorption is measured at 362 nm.
Raw data obtained are absorbance data. The difference between absorbance of the sample and mean absorbance of vehicle is calculated. The minimal effect concentration (MEC) is defined as the lowest concentration giving an absorbance difference, OD362≥0.05.

SMILES	IC50 (A. baumannii ATCC 17978) [nM]	Plasma precipitation MEC [1] [µmol/L]
CN1C(=O)[C@H](CCCCN)NC(=O)[C@H](CCCN)NCc2cccnc2Sc2c(F)ccc(-c3ccn(CC(=O)O)c(=O)c3)c2CNC(=O)[C@@H]1Cc1c[nH]c2ccccc12 [Example 9.01, 2-[4-[(11S,14S,17S)-14-(4-Aminobutyl)-11-(3-aminopropyl)-25-fluoro-17-(1H-indo1-3-ylmethyl)-16-methyl-12,15,18-trioxo-2-thia-4,10,13,16,19-pentazatricyclo[19.4.0.03,8]pentacosa-1(25),3(8),4,6,21,23-hexaen-22-yl]-2-oxo-1-pyridyl]acetic acid]	81	>1690
CN1C(=O)[C@H](CCCN)NC(=O)[C@H](CCCN)NCc2cccnc2Sc2c(Cl)ccc(-c3ccc(C(=O)O)cc3)c2CNC(=O)[C@@H]1Cc1c[nH]c2ccccc12 [Example 12.00, 4-[(11S,14S,17S)-11,14-bis(3-Aminopropyl)-25-chloro-17-(1H-indol-3-ylmethyl)-16-methyl-12,15,18-trioxo-2-thia-4,10,13,16,19-pentazatricyclo[19.4.0.03,8]pentacosa-1(21), 3,5,7,22,24-hexaen-22-yl]benzoic Acid]	19	
CN1C(=O)[C@H](CCCCN)NC(=O)[C@H](CCN)NCc2cccnc2Sc2c(Cl)ccc(-c3ccc(C(=O)O)cc3)c2CNC(=O)[C@@H]1Cc1c[nH]c2ccccc12 [Example 15.00, 4-[(1 S,14S,7S)-14-(4-Aminobutyl)-11-(2-aminoethyl)-25-chloro-17-(1H-indol-3-ylmethyl)-16-methyl-12,15,18-trioxo-2-thia-4,10,13,16,19-pentazatricyclo[19.4.0.03,8]pentacosa-1(25), 3(8), 4,6,21,23-hexaen-22-yl]benzoic Acid]	20	
CN1C(=O)[C@H](CCCCN)NC(=O)[C@H](CCCN)NCc2nccnc2Sc2c(Cl)ccc(-c3ccc(C(=O)O)cc3)c2CNC(=O)[C@@H]1Cc1c[nH]c2ccccc12 [Example 8.00, 4-[(11S,14S,17S)-14-(4-Aminobutyl)-11-(3-aminopropyl)-25-chloro-17-(1H-indol-3-ylmethyl)-16-methyl-12,15,18-trioxo-2-thia-4,7,10,13,16,19-hexazatricyclo[19.4.0.03,8]pentacosa-1(21), 3,5,7,22,24-hexaen-22-yl]benzoic Acid]	20	
CN1C(=O)[C@H](CCCCN)NC(=O)[C@H](CCCN)NCc2cccnc2Sc2c(Cl)ccc(-c3ccc(C(=O)O)nc3)c2CNC(=O)[C@@H]1Cc1c[nH]c2ccccc12 [Example 2.02, 5-[(11S,14S,17S)-14-(4-aminobutyl)-11-(3-aminopropyl)-25-chloro-17-(1H-indo1-3-ylmethyl)-16-methyl-12,15,18-trioxo-2-thia-4,10,13,16,19-pentazatricyclo[19.4.0.03,8]pentacosa-1(25),3,5,7,21,23-hexaen-22-yl]pyridine-2-carboxylic acid]	29	
CN1C(=O)[C@H](CCCN)NC(=O)[C@H](CCCN)NCc2cccnc2Sc2cccc(-c3ccc(C(=O)O)cc3)c2CNC(=O)[C@@H]1Cc1c[nH]c2ccccc12 [Example 17.00, 4-[(1 S,14S,17S)-11,14-bis(3-Aminopropyl)-17-(1H-indol-3-ylmethyl)-16-methyl-12,15,18-trioxo-2-thia-4,10,13,16,19-pentazatricyclo[19.4.0.03,8]pentacosa-1(25), 3 (8),4,6,21,23-hexaen-22-yl]benzoic Acid]	75	
CN1C(=O)[C@H](CCCCN)NC(=O)[C@H](CCCN)NCc2cccnc2Sc2c(Cl)ccc(-c3ccc(C(=O)O)c(O)c3)c2CNC(=O)[C@@H]1Cc1c[nH]c2ccccc12 [Example 3.00, 4-[(1 S,14S,17S)-14-(4-Aminobutyl)-1-(3-aminopropyl)-25-chloro-17-(1H-indol-3-ylmethyl)-16-methyl-12,15,18-trioxo-2-thia-4,10,13,16,19-pentazatricyclo[19.4.0.03,8]pentacosa-1(21), 3(8), 4,6,22,24-hexaen-22-yl]-2-hydroxy-benzoic Acid]	39	
CN1C(=O)[C@H](CCCCN)NC(=O)[C@H](CCC(N)=O)NCc2cccnc2Sc2c(Cl)ccc(-c3ccc(C(=O)O)cc3)c2CNC(=O)[C@@H]1Cc1c[nH]c2ccccc12 [Example 5.00, 4-[(11S,14S,17S)-14-(4-aminobutyl)-1-(3-amino-3-oxo-propyl)-25-chloro-17-(1H-indol-3-ylmethyl)-16-methyl-12,15,18-trioxo-2-thia-4,10,13,16,19-pentazatricyclo[19.4.0.03,8]pentacosa-1(21), 3,5,7,22,24-hexaen-22-yl]benzoic Acid]	67	
CN1C(=O)[C@H](CCCCN)NC(=O)[C@H](CCCN)NCc2cccnc2Sc2c(F)ccc(-c3ccn(/C=C/C(=O)O)c(=O)c3)c2CNC(=O)[C@@H]1Cc1c[nH]c2ccccc12 [Example 9.02, (E)-3-[4-[(11S,14S,17S)-14-(4-Aminobutyl)-11-(3-aminopropyl)-25-fluoro-17-(1H-indol-3-ylmethyl)-16-methyl-12,15,18-trioxo-2-thia-4,10,13,16,19-pentazatricyclo[19.4.0.03,8]pentacosa-1(25),3(8),4,6,21,23-hexaen-22-yl]-2-oxo-1-pyridyl]prop-2-enoic acid]	88	
CN1C(=O)[C@H](CCN)NC(=O)[C@H](CCCN)NCc2cccnc2Sc2c(Cl)ccc(-c3ccc(C(=O)O)cc3)c2CNC(=O)[C@@H]1Cc1c[nH]c2ccccc12 [Example 13.00, 4-[(11S,14S,17S)-14-(2-Aminoethyl)-11-(3-aminopropyl)-25-chloro-17-(1H-indol-3-ylmethyl)-16-methyl-12,15,18-trioxo-2-thia-4,10,13,16,19-pentazatricyclo[19.4.0.03,8]pentacosa-1(25), 3(8), 4,6,21,23-hexaen-22-yl]benzoic Acid]	20	
CN1C(=O)[C@H](CCCN)NC(=O)[C@H](CCN)NCc2cccnc2Sc2c(Cl)ccc(-c3ccc(C(=O)O)cc3)c2CNC(=O)[C@@H]1Cc1c[nH]c2ccccc12 [Example 16.00, 4-[(11S,14S,17S)-11-(2-Aminoethyl)-14-(3-aminopropyl)-25-chloro-17-(1H-indol-3-ylmethyl)-16-methyl-12,15,18-trioxo-2-thia-4,10,13,16,19-pentazatricyclo[19.4.0.03,8]pentacosa-1(25), 3(8), 4,6,21,23-hexaen-22-yl]benzoic Acid]	20	
CN1C(=O)[C@H](CCCN)NC(=O)[C@H](CCCN)NCc2cccnc2Sc2c(F)ccc(-c3ccc(C(=O)O)cc3)c2CNC(=O)[C@@H]1Cc1c[nH]c2ccccc12 [Example 14.00, 4-[(1 S,14S,17S)-11,14-bis(3-Aminopropyl)-25-fluoro-17-(H-indol-3-ylmethyl)-16-methyl-12,15,18-trioxo-2-thia-4,10,13,16,19-pentazatricyclo[19.4.0.03,8]pentacosa-1(25), 3(8), 4,6,21,23-hexaen-22-yl]benzoic Acid]	21	
CN1C(=O)[C@H](CCC(F)(F)CN)NC(=O)[C@H](CCCN)NCc2cccnc2Sc2c(Cl)ccc(-c3ccc(C(=O)O)cc3)c2CNC(=O)[C@@H]1Cc1c[nH]c2ccccc12 [Example 4.00, 4-[(11S,14S,17S)-14-(4-Amino-3,3-difluoro-butyl)-11-(3-aminopropyl)-25-chloro-17-(1H-indol-3-ylmethyl)-16-methyl-12,15,18-trioxo-2-thia-4,10,13,16,19-pentazatricyclo[19.4.0.03,8]pentacosa-1(21), 3,5,7,22,24-hexaen-22-yl]benzoic Acid]	19	
Cc1[nH]c2ccccc2c1C[C@H]1C(=O)NCc2c(-c3ccc(C(=O)O)cc3)ccc(Cl)c2Sc2ncccc2CN[C@@H](CCCN)C(=O)N[C@@H](CCCCN)C(=O)N1C [Example 7.00, 4-[(11S,14S,17S)-14-(4-Aminobutyl)-11-(3-aminopropyl)-25-chloro-16-methyl-17-[(2-methyl-1H-indol-3-yl)methyl]-12,15,18-trioxo-2-thia-4,10,13,16,19-pentazatricyclo[19.4.0.03,8]pentacosa-1(25), 3,5,7,21,23-hexaen-22-yl]benzoic Acid]	28	
